Tests used:
[1] = test system: A549 cells; test: Proliferation Assay (A549 viability, Cell Titer Fluor, 72 hours); assay type: cell-based; conditions: Homo sapiens
Outline: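 A549 cells seeded at 1000 cells/well, rested 24 h, then exposed to compound in 0.5% DMSO for 72 h at 37 °C. Viability read by Cell Titer Fluor fluorescence; IC50 from four-parameter logistic fit.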

[2] = molecular target: purified recombinant human GAC (GLS1) (Homo sapiens (Human), UniProt O94925); test: GLS1 Enzymatic Activity Assay (dual-coupled enzymatic assay, resorufin/Amplex UltraRed readout); assay type: biochemical;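 also: glutamate from GAC coupled via glutamate oxidase and peroxidase to resorufin, read as fluorescence (ex 530, em 590 nm) kinetically or at 20 min, four-parameter logistic IC50 fit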
purified recombinant human GAC (GLS1), sequence (O94925 other isoform, or with tags, fused parts or gaps): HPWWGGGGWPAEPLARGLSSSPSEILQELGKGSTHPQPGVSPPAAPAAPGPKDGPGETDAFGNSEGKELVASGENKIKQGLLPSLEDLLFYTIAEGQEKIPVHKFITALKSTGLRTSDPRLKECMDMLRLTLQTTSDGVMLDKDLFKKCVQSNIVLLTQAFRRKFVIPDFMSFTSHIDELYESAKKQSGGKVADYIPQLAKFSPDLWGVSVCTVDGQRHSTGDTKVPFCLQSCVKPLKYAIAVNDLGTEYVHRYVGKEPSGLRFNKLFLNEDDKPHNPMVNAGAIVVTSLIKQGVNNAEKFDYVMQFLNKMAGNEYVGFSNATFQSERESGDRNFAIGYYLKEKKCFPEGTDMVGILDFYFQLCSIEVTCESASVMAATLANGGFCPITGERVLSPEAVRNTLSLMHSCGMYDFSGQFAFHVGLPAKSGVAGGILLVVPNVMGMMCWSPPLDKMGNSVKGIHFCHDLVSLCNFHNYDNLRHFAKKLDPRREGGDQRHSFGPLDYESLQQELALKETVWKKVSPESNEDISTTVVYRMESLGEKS

| Structure (SMILES) | EC50 ([1]; A549, 72 h) | IC50 [2] | EC50 [1] |
| --- | --- | --- | --- |
| O=C(Cc1cccnc1)Nc1cn(CCCCn2cc(C(=O)NCc3cccnc3)nn2)nn1 [Example 320, 1-(4-{4-[2-(pyridin-3-yl)acetamido]-1H-1,2,3-triazol-1-yl}butyl)-N-(pyridin-3-ylmethyl)-1H-1,2,3-triazole-4-carboxamide] | 500 to 5000 nM | 100 to 500 nM | – |
| O=C(Cc1ccccn1)Nc1cn(CCCCn2cc(C(=O)NCc3cccnc3)nn2)nn1 [Example 321, 1-(4-{4-[2-(pyridin-2-yl)acetamido]-1H-1,2,3-triazol-1-yl}butyl)-N-(pyridin-3-ylmethyl)-1H-1,2,3-triazole-4-carboxamide] | 500 to 5000 nM | 500 to 5000 nM | – |
| Cc1ccc(CC(=O)Nc2cn(CCCCn3cc(C(=O)NCc4cccnc4)nn3)nn2)cn1 [Example 322, 1-(4-{4-[2-(6-methylpyridin-3-yl)acetamido]-1H-1,2,3-triazol-1-yl}butyl)-N-(pyridin-3-ylmethyl)-1H-1,2,3-triazole-4-carboxamide] | 500 to 5000 nM | 100 to 500 nM | – |
| O=C(Cc1cccc(OC(F)(F)F)c1)Nc1cn(CC(F)CCn2cc(C(=O)NCc3ccccn3)nn2)nn1 (centres unmarked) [Example 327, 1-[3-fluoro-4-(4-{2-[3-(trifluoromethoxy)phenyl]acetamido}-1H-1,2,3-triazol-1-yl)butyl]-N-(pyridin-2-ylmethyl)-1H-1,2,3-triazole-4-carboxamide] | < 100 nM | < 100 nM | – |
| O=C(CN1CC(F)C1)Nc1cn(CCCCn2cc(C(=O)NCc3cccc(OC(F)(F)F)c3)nn2)nn1 [Example 329, 1-(4-{4-[2-(3-fluoroazetidin-1-yl)acetamido]-1H-1,2,3-triazol-1-yl}butyl)-N-{[3-(trifluoromethoxy)phenyl]methyl}-1H-1,2,3-triazole-4-carboxamide] | 500 to 5000 nM | 100 to 500 nM | – |
| O=C(CN1CCC(F)(F)CC1)Nc1cn(CCCCn2cc(C(=O)NCc3cccc(OC(F)(F)F)c3)nn2)nn1 [Example 332, 1-(4-(4-(2-(4,4-difluoropiperidin-1-yl)acetamido)-1H-1,2,3-triazol-1-yl)butyl)-N-(3-(trifluoromethoxy)benzyl)-1H-1,2,3-triazole-4-carboxamide] | – | < 100 nM | 100 to 500 nM |
| O=C(Cc1cccc(OC(F)(F)F)c1)Nc1cn(CCCCn2cc(C(=O)NCc3cc(Cl)ccc3F)nn2)nn1 [Example 334, N-[(5-chloro-2-fluorophenyl)methyl]-1-[4-(4-{2-[3-(trifluoromethoxy)phenyl]acetamido}-1H-1,2,3-triazol-1-yl)butyl]-1H-1,2,3-triazole-4-carboxamide] | < 100 nM | < 100 nM | – |

Second part, led by results:

| EC50 ([1]; A549, 72 h) | IC50 [2] | Structure (SMILES) | EC50 [1] |
| --- | --- | --- | --- |
| < 100 nM | < 100 nM | Cc1ccc(CNC(=O)c2cn(CCC(F)Cn3cc(NC(=O)Cc4cccc(OC(F)(F)F)c4)nn3)nn2)cn1 (centres unmarked) [Example 328, 1-[3-fluoro-4-(4-{2-[3-(trifluoromethoxy)phenyl]acetamido}-1H-1,2,3-triazol-1-yl)butyl]-N-[(6-methylpyridin-3-yl)methyl]-1H-1,2,3-triazole-4-carboxamide] | – |
| 100 to 500 nM | < 100 nM | O=C(CN1CC(F)(F)C1)Nc1cn(CCCCn2cc(C(=O)NCc3cccc(OC(F)(F)F)c3)nn2)nn1 [Example 330, 1-(4-{4-[2-(3,3-difluoroazetidin-1-yl)acetamido]-1H-1,2,3-triazol-1-yl}butyl)-N-{[3-(trifluoromethoxy)phenyl]methyl}-1H-1,2,3-triazole-4-carboxamide] | – |
| 100 to 500 nM | < 100 nM | O=C(CN1CCC(F)(F)C1)Nc1cn(CCCCn2cc(C(=O)NCc3cccc(OC(F)(F)F)c3)nn2)nn1 [Example 331, 1-(4-{4-[2-(3,3-difluoropyrrolidin-1-yl)acetamido]-1H-1,2,3-triazol-1-yl}butyl)-N-{[3-(trifluoromethoxy)phenyl]methyl}-1H-1,2,3-triazole-4-carboxamide] | – |
